How the values were obtained:
[1] = tested on: DBTRG-05MG glioma cells; assay: senescence-associated β-galactosidase staining; format: cell-based
Method: (§1) Cells were plated at a concentration of 25,000 per well in a 4-well chamber slides (Lab-Tek) and treated for seven days with drug or shRNA as described above and stained for senescence-associated β-galactosidase (Cell Signaling kit #9860). Cell number was quantitated by DAPI staining and β-galactosidase staining quantitated as a proportion of total cells. Senescence associated heterochromatic foci were quantitated after cells were fixed with 4% paraformaldehyde, permeabilized with 0.1% Triton, blocked with 2% FBS, and stained with antibodies against HP1γ (1:5000 dilution, 2MOD-1G6 Millipore). Senescent cells were identified by immunofluorescence after treatment of slides with anti-mouse secondary antibodies and quantitation of focal SAHF as a percent of total cells (Leica Upright Confocal SP5 confocal microscope). Actin was marked using phalloidin staining (1:500, Invitrogen) and cells were counterstained with DAPI. Cell area was measured by with Metamorph software to calculate relative area per cell.

[2] = tested on: DKMG glioma cells; assay: senescence-associated β-galactosidase staining; format: cell-based
Method: as §1

[3] = tested on: MCF7 breast cancer cells; assay: senescence-associated β-galactosidase staining; format: cell-based
Method: as §1

[4] = tested on: SNB19 glioma cells; assay: senescence-associated β-galactosidase staining; format: cell-based
Method: as §1

[5] = tested on: T98G glioma cells; assay: senescence-associated β-galactosidase staining; format: cell-based; conditions: after treatment
Method: as §1

[6] = tested on: RB in WD/DDLS cell lines; assay: RB phosphorylation by immunoblot; format: cell-based, human; conditions: 1 or 2 days of treatment
Method: FIG. 1A-C. […] Mean percentage of BrdU incorporation or annexin V+/7-AAD− cells was calculated from three or more independent experiments. Error bars represent standard deviation (*p<0.05).
Antibodies against CDK4 (3F121), MDM2 (N-20 and SMP14), total RB (IF8), Cyclin A (H432), p16 (C20), p53 (DO-1 and Bp53-12), tubulin (C20) and FLAG (M2) were obtained from Santa Cruz Biotechnology, phospho-Rb 780 (#9307) from Cell Signalling, and ARF (3642) from Abeam, HAUSP (A300-033A) from Bethyl Laboratories. Treated cells were lysed with buffer composed of 50 mM Tris-HCl, pH7.4, 250 mM NaCl, 5 mM EDTA, 0.5% NP40, 2 mM PMSF, and supplemented with protease inhibitors. Eighty micrograms of protein were resolved by SDS-PAGE and transferred to PVDF membranes. Membranes were incubated overnight with antibodies (1:1000). […] Cycles were repeated every four weeks and patients are still on trial. Pre-treatment biopsies were collected within two weeks of the first dose and post-treatment biopsies collected after at last three weeks of treatment. Extracts were prepared in 50 mM Tris-HCl, pH7.4, 150 mM NaCl, 1 mM EDTA, 1% NP40, 0.25% sodium deoxycholate and supplemented with mini-protease inhibitor cocktail (Roche). Tumor response was assessed by reference radiologist by CT scan every six weeks for 36 weeks, and every 12 weeks thereafter. […]

[7] = tested on: cytokine secretion of LS8313 cells; assay: human cytokine array (SASP); format: cell-based; conditions: 1 μM, seven days
Method: (§2) FIG. 16. […] Human cytokine arrays were purchased from R&D Technologies (ARY006). […] The media was changed 24 hours prior to harvest. On the day of harvest, the media was collected, spun for 5 minutes at 1200 rpm and filtered through a […] syringe to remove debris. Cells were trypsinized and counted and media volume was adjusted so that an equal number of cells were represented from each sample. Cytokine arrays were performed according to manufacturer's protocol. Signal intensity was measured using ImageJ and a log2 value of the PD/CTRL ratio was calculated.

[8] = tested on: cytokine secretion of LS8817 cells; assay: human cytokine array (SASP); format: cell-based; conditions: 1 μM, seven days
Method: as §2

With `CC(=O)c1c(C)c2cnc(Nc3ccc(N4CCNCC4)cn3)nc2n(C2CCCC2)c1=O` [PD0332991] the “PD-induced SA-β-gal” value ([1]; 7 days of treatment) was “Y (Y, yes: the number of SA-β-gal cells increases at least 10X after 7 days of treatment)”, the “number of SA-β-gal cells” value ([1]; seven days after exposure) was “significant increase” and the “PD-induced SA-β-gal” value ([2]; 7 days of treatment) was “Y (Y, yes: the number of SA-β-gal cells increases at least 10X after 7 days of treatment)”. The “number of SA-β-gal cells” value ([2]; seven days after exposure) was “significant increase”, the “PD-induced SA-β-gal” value ([3]; 7 days of treatment) was “Y (Y, yes: the number of SA-β-gal cells increases at least 10X after 7 days of treatment)” and the “number of SA-β-gal cells” value ([3]; seven days after exposure) was “significant increase”. The “PD-induced SA-β-gal” value ([4]; 7 days of treatment) was “Y (Y, yes: the number of SA-β-gal cells increases at least 10X after 7 days of treatment)”, the “number of SA-β-gal cells” value ([4]; seven days after exposure) was “significant increase” and the “increase in the number of SA-β-gal cells” value [5] was “not observed”. The “unphosphorylated RB” value [6] was “accumulated”, the SASP cytokine secretion [7] was “only IL-6 secretion increased” and the “MIF-1 and PAI-1 secretion” value [8] was “essentially unchanged”. For the same compound, the “secretion of GM-CSF, GROα/CXCL1, IL-6, IL-8 and MCP-1” value [8] was “upregulated”.
